Where a name gives a salt, the structure may show the parent alone. Read-outs that look alike come from different tables or passages of the source. Marks after values point to notes of the source that are not given here.
Legend:
[1] = system: human non-small cell lung cancer cell line A-549; test: In vitro cytotoxicity assay, Sulforhodamine B (SRB), A-549; type: cell-based; details: for IC50: Homo sapiens
[2] = system: human cervical carcinoma cell line Hela; test: In vitro cytotoxicity assay, Sulforhodamine B (SRB), Hela; type: cell-based; details: Homo sapiens, HeLa
sarcoma 180 = test: In vivo antitumor assay on Sarcoma 180 (S180) in mice; details: for inhibition in vivo at 10 mg/kg / inhibition in vivo at 20 mg/kg / inhibition in vivo at 40 mg/kg: Mus musculus, Sarcoma-180, iv
[3] = system: human non-small cell lung cancer (A549) xenografts; test: Nude mice models bearing human non-small cell lung cancer (A549) xenografts; details: for efficacy against A549 xenografts (in words) / toxicity in the mice (in words): iv
[4] = depending on its concentration and action time; read-out: IC50, in vitro activity; cited from earlier work
[5] = system: human non-small cell lung cancer (A549) xenografts; details: mouse, in vivo
[6] = A549, 72 h, read-out: A549 (IC50, nM)
[7] = 72 h, read-out: Hela (IC50, nM)
[8] = 1.5 mg/kg iv once at d0, dn: 12 days after the first administration
[9] = 3 mg/kg iv once at d0, dn: 12 days after the first administration
[10] = 6 mg/kg iv once at d0, dn: 12 days after the first administration
[11] = BM48 tartrate once at d0, vinorelbine tartrate twice at d0 and d4
[12] = read-out: Inhibition rate %, 20 mg/kg, iv, d 1, 4
[13] = read-out: Inhibition rate %, 40 mg/kg, iv, d 1, 4

CCC1=C[C@@H]2CN(CCc3c([nH]c4ccccc34)[C@@](C(=O)OC)(c3cc4c(cc3OC)N(C)[C@H]3C(O)(CNC(=O)OC)[C@H](OC(C)=O)[C@]5(CC)C=CCN6CC[C@]43[C@@H]65)C2)C1 (stereo partly drawn) [BM48]
cell-based efficacy, inhibition of tumor cell proliferation (in words) [1]: excellent cell-based efficacy | IC50 [1, 6]: 75.3 nM | IC50 [2, 7]: 34.8 nM | Average weight (g) At sacrifice (sarcoma 180; 10 mg/kg, iv, d 1, 4): 27.1 g | Tumor Weight (g) X ± SD (sarcoma 180; 10 mg/kg, iv, d 1, 4): 0.85 ± 0.11 g | Average weight (g) At sacrifice (sarcoma 180; 20 mg/kg, iv d 1): 24.2 g | Tumor Weight (g) X ± SD (sarcoma 180; 20 mg/kg, iv d 1): 0.35 ± 0.03 g | inhibition in vivo at 10 mg/kg (sarcoma 180; read-out: Inhibition rate %, 10 mg/kg, iv, d 1, 4): 46.9% | inhibition in vivo at 20 mg/kg (sarcoma 180; read-out: Inhibition rate %, 20 mg/kg, iv d 1): 78.1% | T/C (%) ([3]; 1.5 mg/kg iv once at d0): 74.0% | Body weight (g) dn [3, 8]: 21.3 g | TV (mm^3) x ± SD dn [3, 8]: 2080 ± 542 mm^3 | RTV x ± SD ([3]; 1.5 mg/kg iv once at d0, relative tumor volume): 8.18 ± 2.20 | T/C (%) ([3]; 3 mg/kg iv once at d0): 62.9* % | Body weight (g) dn [3, 9]: 20.4 g | TV (mm^3) x ± SD dn [3, 9]: 1545 ± 410 mm^3 | RTV x ± SD ([3]; 3 mg/kg iv once at d0, relative tumor volume): 6.96 ± 1.79 | T/C (%) ([3]; 6 mg/kg iv once at d0): 31.5* % | Body weight (g) dn [3, 10]: 18.8 g | TV (mm^3) x ± SD dn [3, 10]: 808 ± 336 mm^3 | RTV x ± SD ([3]; 6 mg/kg iv once at d0, relative tumor volume): 3.48 ± 1.83 | efficacy against A549 xenografts (in words) [3, 11]: significantly inhibited | toxicity in the mice (in words) [3, 11]: appeared to show toxicity after the administration of BM48, but could recover well later | efficacy against A549 xenografts (in words) ([3]; BM48 tartrate once at d0, vinorelbine tartrate twice at d0 and d4, listed as BM48 tartrate): comparable to or even a little better than vinorelbine tartrate

CC[C@]12C=CCN3CC[C@@]4(c5cc([C@@]6(C(=O)OC)C[C@@H]7C[C@@H](C(C)(F)F)CN(CCc8c6[nH]c6ccccc86)C7)c(OC)cc5N(C)[C@H]4C(O)(COC(=O)C4CC4)[C@@H]1OC(C)=O)[C@@H]32 (stereo partly drawn) [BM76]
IC50 [1, 6]: > 1000 nM | IC50 [2, 7]: > 1000 nM | Average weight (g) At sacrifice (sarcoma 180; 20 mg/kg, iv, d 1, 4): 31.4 g | Tumor Weight (g) X ± SD (sarcoma 180; 20 mg/kg, iv, d 1, 4): 1.20 ± 0.09 g | Average weight (g) At sacrifice (sarcoma 180; 40 mg/kg, iv, d 1, 4): 31.8 g | Tumor Weight (g) X ± SD (sarcoma 180; 40 mg/kg, iv, d 1, 4): 1.25 ± 0.45 g | inhibition in vivo at 20 mg/kg (sarcoma 180; [12]): 25% | inhibition in vivo at 40 mg/kg (sarcoma 180; [13]): 21.9%

CCC(=O)NCC1(O)[C@H](OC(C)=O)[C@]2(CC)C=CCN3CC[C@@]4(c5cc([C@@]6(C(=O)OC)C[C@@H]7C[C@@H](C(C)(F)F)CN(CCc8c6[nH]c6ccccc86)C7)c(OC)cc5N(C)[C@@H]14)[C@@H]32 (stereo partly drawn) [BM78]
IC50 [1, 6]: > 1000 nM | IC50 [2, 7]: > 1000 nM | Average weight (g) At sacrifice (sarcoma 180; 20 mg/kg, iv, d 1, 4): 30.1 g | Tumor Weight (g) X ± SD (sarcoma 180; 20 mg/kg, iv, d 1, 4): 0.76 ± 0.29 g | Average weight (g) At sacrifice (sarcoma 180; 40 mg/kg, iv d 1): 28.8 g | Tumor Weight (g) X ± SD (sarcoma 180; 40 mg/kg, iv d 1): 0.48 ± 0.15 g | Average weight (g) At sacrifice (sarcoma 180; 40 mg/kg, iv, d 1, 4): 29.0 g | Tumor Weight (g) X ± SD (sarcoma 180; 40 mg/kg, iv, d 1, 4): 0.36 ± 0.11 g | inhibition in vivo at 20 mg/kg (sarcoma 180; [12]): 52.5% | inhibition in vivo at 40 mg/kg (sarcoma 180; read-out: Inhibition rate %, 40 mg/kg, iv d 1): 70% | inhibition in vivo at 40 mg/kg (sarcoma 180; [13]): 77.5% | antitumor activity in vivo (in words) (sarcoma 180; S180 in mice, iv): strong antitumor activity in vivo

CC[C@]12C=CCN3CC[C@@]4(c5cc([C@@]6(C(=O)OC)C[C@@H]7C[C@@H](C(C)(F)F)CN(CCc8c6[nH]c6ccccc86)C7)c(OC)cc5N(C)[C@H]4C(O)(CNC(=O)OC)[C@@H]1OC(C)=O)[C@@H]32 (stereo partly drawn) [BM79]
IC50 [1, 6]: > 1000 nM | IC50 [2, 7]: > 1000 nM | Average weight (g) At sacrifice (sarcoma 180; 20 mg/kg, iv, d 1, 4): 33.0 g | Tumor Weight (g) X ± SD (sarcoma 180; 20 mg/kg, iv, d 1, 4): 1.47 ± 0.15 g | Average weight (g) At sacrifice (sarcoma 180; 40 mg/kg, iv, d 1, 4): 29.5 g | Tumor Weight (g) X ± SD (sarcoma 180; 40 mg/kg, iv, d 1, 4): 0.84 ± 0.49 g | inhibition in vivo at 20 mg/kg (sarcoma 180; [12]): 8.1% | inhibition in vivo at 40 mg/kg (sarcoma 180; [13]): 47.5%

CC[C@]12C=CCN3CC[C@@]4(c5cc([C@@]6(C(=O)OC)C[C@@H]7C[C@@H](C(C)(F)F)CN(CCc8c6[nH]c6ccccc86)C7)c(OC)cc5N(C)[C@H]4C(O)(CNC(=O)OCC(C)C)[C@@H]1OC(C)=O)[C@@H]32 (stereo partly drawn) [BM80]
IC50 [1, 6]: > 1000 nM | IC50 [2, 7]: > 1000 nM | Average weight (g) At sacrifice (sarcoma 180; 20 mg/kg, iv, d 1, 4): 34.5 g | Tumor Weight (g) X ± SD (sarcoma 180; 20 mg/kg, iv, d 1, 4): 1.55 ± 0.34 g | Average weight (g) At sacrifice (sarcoma 180; 40 mg/kg, iv, d 1, 4): 32.5 g | Tumor Weight (g) X ± SD (sarcoma 180; 40 mg/kg, iv, d 1, 4): 1.58 ± 0.12 g | inhibition in vivo at 20 mg/kg (sarcoma 180; [12]): 3.1% | inhibition in vivo at 40 mg/kg (sarcoma 180; [13]): 1.2%

CC[C@]12C=CCN3CC[C@@]4(c5cc([C@@]6(C(=O)OC)C[C@@H]7C[C@@H](C(C)(F)F)CN(Cc8c6[nH]c6ccccc86)C7)c(OC)cc5N(C)[C@H]4[C@@](O)(C(=O)OC)[C@@H]1OC(C)=O)[C@@H]32 [Vinflunine, reference compound]
Average weight (g) At sacrifice (sarcoma 180; 40 mg/kg, iv, d 1, 4): 28.4 g | Tumor Weight (g) X ± SD (sarcoma 180; 40 mg/kg, iv, d 1, 4): 0.44 ± 0.13 g | inhibition in vivo at 40 mg/kg (sarcoma 180; [13]): 72.5% | IC50 [4]: 60 to 300 nM

CCC1=C[C@@H]2CN(C1)Cc1c([nH]c3ccccc13)[C@@](C(=O)OC)(c1cc3c(cc1OC)N(C)[C@H]1[C@@](O)(C(=O)OC)[C@H](OC(C)=O)[C@]4(CC)C=CCN5CC[C@]31[C@@H]54)C2 [Vinorelbine tartrate, vinorelbine tartrate, reference compound]
Body weight (g) dn [5]: 16.4 g | IC50 ([1]; A549, SRB assay, 72 hours incubation, ditartrate of all compounds used, read-out: A549 (IC50)): 23.1 nM | IC50 ([2]; SRB assay, 72 hours incubation, ditartrate of all compounds used, read-out: Hela (IC50)): 9.1 nM | Average weight (g) At sacrifice (sarcoma 180; 10 mg/kg, iv, d 1, 4): 27.5 g | Tumor Weight (g) X ± SD (sarcoma 180; 10 mg/kg, iv, d 1, 4): 0.60 ± 0.23 g | inhibition in vivo at 10 mg/kg (sarcoma 180; read-out: Inhibition rate %): 62.5% | toxicity in the mice (in words) [3, 11]: higher toxicity | RTV x ± SD ([3]; mouse, in vivo): 2.66 ± 1.18 | T/C (%) ([3]; mouse, in vivo): 24.1* % | TV (mm^3) x ± SD dn ([3]; mouse, in vivo): 550 ± 206 mm^3 | efficacy against A549 xenografts (in words) ([3]; mouse, in vivo): a little better efficacy than BM48 tartrate

Source: patent US8168647B2, “Vinblastine derivatives, their preparation, use and pharmaceutical compositions comprising the said derivatives” (Shanghai Institute of Materia Medica Chinese Academy of …, priority 2007, dated 2012)
